Assay results taken from article PMC9848300, “Discovery of novel enasidenib analogues targeting inhibition of mutant isocitrate dehydrogenase 2 as antileukaemic agents” (Journal of Enzyme Inhibition and Medicinal Chemistry, 2023).

Experiments:
[1] = system: SK-MEL-28; test: NCI 60 antitumor screening (single dose / five doses); format: cell-based; settings: Homo sapiens; SK-MEL-28 (melanoma), single dose 10 μM; read-out: Growth inhibition percentage (GI %)
[2] = system: A549/ATCC; test: NCI 60 antitumor screening (single dose); format: cell-based; settings: Homo sapiens; A549/ATCC (non-small cell lung cancer), single dose 10 μM; read-out: Growth inhibition percentage (GI %)
How it was run: (§1)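 At one concentration (10 μM), compounds are run in triplicate on 60 human cancer lines per the NCI method. Treated-cell growth is recorded as G%. Reported inhibition equals 100 − G%.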

[3] = system: CAKI-1; test: NCI 60 antitumor screening (single dose); format: cell-based; settings: Homo sapiens; CAKI-1 (renal cancer), single dose 10 μM; read-out: Growth inhibition percentage (GI %)
How it was run: as §1

[4] = system: SK-OV-3; test: NCI 60 antitumor screening (single dose); format: cell-based; settings: Homo sapiens; SK-OV-3 (ovarian cancer), single dose 10 μM; read-out: Growth inhibition percentage (GI %)
How it was run: (§2)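 Read-out is percent growth (G%) of treated cancer cells relative to untreated, converted to percent inhibition as 100 − G%. Each compound was applied once at 10 μM across 60 human tumour lines under the NCI protocol.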

[5] = system: U251; test: NCI 60 antitumor screening (single dose); format: cell-based; settings: Homo sapiens, U-251; U251 (CNS cancer), single dose 10 μM; read-out: Growth inhibition percentage (GI %)
How it was run: as §2

[6] = system: OVCAR-5; test: NCI 60 antitumor screening (single dose); format: cell-based; settings: Homo sapiens; OVCAR-5 (ovarian cancer), single dose 10 μM; read-out: Growth inhibition percentage (GI %)
How it was run: as §2

[7] = system: NCI-H322M; test: NCI 60 antitumor screening (single dose); format: cell-based; settings: Homo sapiens; NCI-H322M (non-small cell lung cancer), single dose 10 μM; read-out: Growth inhibition percentage (GI %)
How it was run: as §1

[8] = system: MCF7; test: NCI 60 antitumor screening (single dose); format: cell-based; settings: Homo sapiens; MCF7 (breast cancer), single dose 10 μM; read-out: Growth inhibition percentage (GI %)
How it was run: as §1

[9] = system: KM 12; test: NCI 60 antitumor screening (single dose); format: cell-based; settings: Homo sapiens, KM12; KM 12 (colon cancer), single dose 10 μM; read-out: Growth inhibition percentage (GI %)
How it was run: as §1

[10] = system: SNB-19; test: NCI 60 antitumor screening (single dose); format: cell-based; settings: Homo sapiens; SNB-19 (CNS cancer), single dose 10 μM; read-out: Growth inhibition percentage (GI %)
How it was run: as §1

[11] = system: NCI-H23; test: NCI 60 antitumor screening (single dose); format: cell-based; settings: Homo sapiens; NCI-H23 (non-small cell lung cancer), single dose 10 μM; read-out: Growth inhibition percentage (GI %)
How it was run: as §2

[12] = system: NCI-H460; test: NCI 60 antitumor screening (single dose); format: cell-based; settings: Homo sapiens; NCI-H460 (non-small cell lung cancer), single dose 10 μM; read-out: Growth inhibition percentage (GI %)
How it was run: as §2

[13] = system: PC-3; test: NCI 60 antitumor screening (single dose); format: cell-based; settings: Homo sapiens; PC-3 (prostate cancer), single dose 10 μM; read-out: Growth inhibition percentage (GI %)
How it was run: as §1

[14] = system: NCI-H226; test: NCI 60 antitumor screening (single dose); format: cell-based; settings: Homo sapiens; NCI-H226 (non-small cell lung cancer), single dose 10 μM; read-out: Growth inhibition percentage (GI %)
How it was run: as §1

[15] = system: NCI-H522; test: NCI 60 antitumor screening (single dose); format: cell-based; settings: Homo sapiens; NCI-H522 (non-small cell lung cancer), single dose 10 μM; read-out: Growth inhibition percentage (GI %)
How it was run: as §2

[16] = system: HOP-62; test: NCI 60 antitumor screening (single dose); format: cell-based; settings: Homo sapiens; HOP-62 (non-small cell lung cancer), single dose 10 μM; read-out: Growth inhibition percentage (GI %)
How it was run: as §2

[17] = system: HCC-2998; test: NCI 60 antitumor screening (single dose); format: cell-based; settings: Homo sapiens; HCC-2998 (colon cancer), single dose 10 μM; read-out: Growth inhibition percentage (GI %)
How it was run: as §2

[18] = system: OVCAR-4; test: NCI 60 antitumor screening (single dose); format: cell-based; settings: Homo sapiens; OVCAR-4 (ovarian cancer), single dose 10 μM; read-out: Growth inhibition percentage (GI %)
How it was run: as §1

[19] = system: OVCAR-3; test: NCI 60 antitumor screening (single dose); format: cell-based; settings: Homo sapiens; OVCAR-3 (ovarian cancer), single dose 10 μM; read-out: Growth inhibition percentage (GI %)
How it was run: as §1

[20] = system: SF-268; test: NCI 60 antitumor screening (single dose); format: cell-based; settings: Homo sapiens; SF-268 (CNS cancer), single dose 10 μM; read-out: Growth inhibition percentage (GI %)
How it was run: as §2

[21] = system: OVCAR-8; test: NCI 60 antitumor screening (single dose); format: cell-based; settings: Homo sapiens; OVCAR-8 (ovarian cancer), single dose 10 μM; read-out: Growth inhibition percentage (GI %)
How it was run: as §1

[22] = system: IGROV1; test: NCI 60 antitumor screening (single dose / five doses); format: cell-based; settings: Homo sapiens, IGROV-1; IGROV1 (ovarian cancer), single dose 10 μM; read-out: Growth inhibition percentage (GI %)
[23] = system: DU-145; test: as above; format: cell-based; settings: Homo sapiens; DU-145 (prostate cancer), single dose 10 μM; read-out: Growth inhibition percentage (GI %)
[24] = system: SF-295; test: as above; format: cell-based; settings: Homo sapiens; SF-295 (CNS cancer), single dose 10 μM; read-out: Growth inhibition percentage (GI %)
[25] = system: RXF 393; test: as above; format: cell-based; settings: Homo sapiens; RXF 393 (renal cancer), single dose 10 μM; read-out: Growth inhibition percentage (GI %)
[26] = system: SW-620; test: as above; format: cell-based, human; settings: Homo sapiens; SW-620 (colon cancer), single dose 10 μM; read-out: Growth inhibition percentage (GI %)

Structure (SMILES) | inhibition at 10 µM [1] [%] | inhibition at 10 µM [2] [%] | inhibition at 10 µM [3] [%] | inhibition at 10 µM [4] [%] | inhibition at 10 µM [5] [%] | inhibition at 10 µM [6] [%] | inhibition at 10 µM [7] [%] | inhibition at 10 µM [8] [%] | inhibition at 10 µM [9] [%] | inhibition at 10 µM [10] [%] | inhibition at 10 µM [11] [%] | inhibition at 10 µM [12] [%] | inhibition at 10 µM [13] [%] | inhibition at 10 µM [14] [%] | inhibition at 10 µM [15] [%] | inhibition at 10 µM [16] [%] | inhibition at 10 µM [17] [%] | inhibition at 10 µM [18] [%] | inhibition at 10 µM [19] [%] | inhibition at 10 µM [20] [%] | other results
C(=N\Nc1nc(N/N=C/c2ccc3c(c2)OCO3)nc(N2CCOCC2)n1)/c1ccc2c(c1)OCO2 [compound 6k, 2,4-Bis[(E)-2-(2H-1,3-Benzodioxol-5-ylmethylidene)hydrazin-1-yl]-6-(morpholin-4-yl)-1,3,5-triazine] | 12.8 | 17.7 | 21.1 | -11.8 | 24.1 | -1.78 | 11.8 | 30.9 | 17.4 | 5.57 | 17 | 12.2 | 30.1 | 22 | 12.5 | 13.6 | 8.26 | 8.16 | 6.73 | 8.94 | inhibition at 10 µM [21]: 26%; inhibition at 10 µM [22]: 24.3%; inhibition at 10 µM [23]: 23.9%; inhibition at 10 µM [24]: 9.09%; inhibition at 10 µM [25]: 30.5%; inhibition at 10 µM [26]: 29%
Fc1cccc(Cl)c1/C=N/Nc1nc(N/N=C/c2c(F)cccc2Cl)nc(N2CCOCC2)n1 [compound 6l, 2,4-Bis[(E)-2-[(2-Chloro-6-fluorophenyl)methylidene]hydrazin-1-yl]-6-(morpholin-4-yl)-1,3,5-triazine] | 10 | 21 | 17.5 | 7.59 | 11.8 | -12.4 | 16.2 | 29 | 18.9 | 12.9 | 27.2 | 23.1 | 19.3 | 20.4 | 14.4 | 6.23 | 5.25 | 32.8 | 22.9 | 11.2 | inhibition at 10 µM [21]: 15.5%; inhibition at 10 µM [22]: 41.4%; inhibition at 10 µM [23]: 4.76%; inhibition at 10 µM [24]: 49.5%; inhibition at 10 µM [25]: 17.8%; inhibition at 10 µM [26]: 9.73%
Oc1ccccc1/C=N/Nc1nc(N/N=C/c2ccccc2O)nc(N2CCCCC2)n1 [compound 7a, 2-[(1e)-(2-{4-[(E)-2-[(2-Hydroxyphenyl)methylidene]hydrazin-1-yl]-6-(piperidin-1-yl)-1,3,5-triazin-2-yl}hydrazin-1-ylidene)methyl] phenol] | 36.6 | 52.2 | 24.5 | 12 | 49.6 | 28.4 | 41.1 | 64.3 | 52.5 | 44 | 44.2 | 60.5 | 55.2 | 18.2 | 52.5 | 44.2 | 60.4 | 70.9 | 80.8 | 45.7 | inhibition at 10 µM [21]: 50.4%; inhibition at 10 µM [22]: 54.8%; inhibition at 10 µM [23]: 45.2%; inhibition at 10 µM [24]: 47.4%; inhibition at 10 µM [25]: 17%; inhibition at 10 µM [26]: 32.2%
Brc1ccccc1/C=N/Nc1nc(N/N=C/c2ccccc2Br)nc(N2CCCCC2)n1 [compound 7b, 2,4-Bis[(E)-2-[(2-Bromophenyl)methylidene]hydrazin-1-yl]-6-(piperidin-1-yl)-1,3,5-triazine] | -0.81 | -2.25 | 3.19 | -0.76 | -2.15 | 0.1 | 3.65 | 13.2 | 2 | 3.76 | 4.71 | 0.96 | 5.07 | 10.9 | 6.02 | 1.14 | -7.41 | 0.53 | -6.1 | -1.64 | inhibition at 10 µM [21]: -1.21%; inhibition at 10 µM [22]: 2.38%; inhibition at 10 µM [23]: -4.47%; inhibition at 10 µM [24]: -3.22%; inhibition at 10 µM [25]: 2.13%; inhibition at 10 µM [26]: -0.46%
Brc1cccc(/C=N/Nc2nc(N/N=C/c3cccc(Br)c3)nc(N3CCCCC3)n2)c1 [compound 7c, 2,4-Bis[(E)-2-[(3-Bromophenyl)methylidene]hydrazin-1-yl]-6-(piperidin-1-yl)-1,3,5-triazine] | 0.82 | 10.6 | 0.79 | -9 | 3.1 | -15.9 | -3.53 | 20.2 | -6.72 | -2.24 | -5.83 | -2.41 | 19.8 | 8.12 | 8.55 | -8.46 | -2.01 | 11.6 | 0.95 | -5.8 | inhibition at 10 µM [21]: 2.62%; inhibition at 10 µM [22]: -0.7%; inhibition at 10 µM [23]: -1.2%; inhibition at 10 µM [24]: 2.91%; inhibition at 10 µM [25]: -16.1%; inhibition at 10 µM [26]: -8.28%
Clc1cccc(/C=N/Nc2nc(N/N=C/c3cccc(Cl)c3)nc(N3CCCCC3)n2)c1 [compound 7d, 2,4-Bis[(E)-2-[(3-Chlorophenyl)methylidene]hydrazin-1-yl]-6-(piperidin-1-yl)-1,3,5-triazine] | 3.79 | 13.7 | 7.63 | -9.25 | 8.35 | -10.4 | -1.33 | 16.9 | 8.95 | 1.37 | 2.24 | 3.48 | 24 | 18 | 11.7 | -4.1 | -8.18 | 9.83 | 8.59 | 8.03 | inhibition at 10 µM [21]: 10.8%; inhibition at 10 µM [22]: -4.79%; inhibition at 10 µM [23]: 5.38%; inhibition at 10 µM [24]: 7.02%; inhibition at 10 µM [25]: 6.56%; inhibition at 10 µM [26]: -2.95%
